Assay results reported in ChEMBL document CHEMBL1129063, “Design, synthesis, and biochemical evaluation of N-substituted maleimides as inhibitors of prostaglandin endoperoxide synthases” (J Med Chem, 1996).

target: Cyclooxygenase (Homo sapiens, UniProt P35354+P23219); test: Inhibitory activity against Prostaglandin G/H synthase

SMILES | IC50
O=C(O)CCCCCCCCCCCN1C(=O)C=CC1=O | 140 µM
CC(=O)Oc1ccc(N2C(=O)C=CC2=O)cc1C(=O)O | 29 µM
O=C(O)CCCCCCN1C(=O)C=CC1=O | 570 µM
Cc1ccccc1CN1C(=O)C=CC1=O | 50 µM
O=C(O)CCCCCCCCN1C(=O)C=CC1=O | 26 µM
CCCCCCCCCN1C(=O)C=CC1=O | 12 µM
O=C(O)CCCCCCCCCCN1C(=O)C=CC1=O | 40 µM
O=C(O)c1ccccc1OCCN1C(=O)C=CC1=O | 250 µM
O=C(O)CCCCCCCCCN1C(=O)C=CC1=O | 37 µM
O=C(O)c1ccc(CN2C(=O)C=CC2=O)cc1 | 27 µM
CC(=O)Oc1cc(N2C(=O)C=CC2=O)ccc1C(=O)O | > 200 µM
CCCCCCCCCCN1C(=O)C=CC1=O | 14 µM
O=C(O)CCCCCN1C(=O)C=CC1=O | > 800 µM
